# Data: USRE38984E1, “Antifungal combination therapy” (Merck & Co., Inc., priority 1996, dated 2006)
# Tests used:
# [1] = drug interaction and efficacy studies against disseminated candidiasis, aspergillosis and cryptococcosis (overall findings); type: in vivo
# Description: (§1) Drug interaction and efficacy studies with Compound I combined with either AmB or FCZ against disseminated candidiasis, aspergillosis and cryptococcosis were performed.
# A. fumigatus [2] = experiment: broth microdilution antifungal susceptibility / drug combination testing in vitro (NCCLS M27-T); type: cell-based
# Excerpt: (§2) This has been shown using a broth microdilution technique which is the standard method for antifungal susceptibility testing proposed by the NCCLS (protocol M27-T). Sub-inhibitory concentrations of Compound I in combination with sub-inhibitory concentrations of AmB and sub-inhibitory concentrations of FCZ were employed. The minimal inhibitory concentrations (MICS) for AmB and Compound I were defined as the lowest drug concentration at which there was an absence of growth.
# (§3) Additional drug combination testing in vitro was performed to evaluate combinations of Compound I with AmB and FCZ against clinical isolates. There was no antagonism evident between Compound I and AmB against C. albicans, A. fumigatus and C. neoformans. Fractional inhibitory indices (FIC) were approximately 0.50 or lower, indicative of additive or synergistic activity.
# C. albicans [3] = experiment: as above; type: cell-based
# Excerpt: as §2, §3
# C. neoformans [4] = experiment: as above; type: cell-based
# Excerpt: as §2, §3
# C. albicans [5] = experiment: drug interaction and efficacy study against disseminated candidiasis; type: in vivo; details: Compound I 0.03 mg/kg and lower plus AmB 0.03 mg/kg and lower
# Description: as §1
# C. neoformans [6] = experiment: drug interaction and efficacy study against cryptococcosis in mice; type: in vivo
# Description: as §1
# A. fumigatus [7] = experiment: drug interaction and efficacy study against disseminated aspergillosis; type: in vivo; details: Compound I 0.008 mg/kg combined with AmB 0.12 mg/kg, over the compounds administered alone
# Description: as §1
# [8] = Compound I with AmB, sub-inhibitory concentrations
# [9] = in vitro drug combination, clinical isolates, indicative of additive or synergistic activity
compound,measurement,setting,value
CCC(C)CC(C)CCCCCCCCC(=O)N[C@H]1C[C@@H](O)[C@@H](NCCN)NC(=O)[C@@H]2[C@@H](O)CCN2C(=O)[C@H]([C@H](O)CCN)NC(=O)[C@H]([C@H](O)[C@@H](O)c2ccc(O)cc2)NC(=O)[C@@H]2C[C@@H](O)CN2C(=O)[C@H]([C@@H](C)O)NC1=O (stereo partly drawn) [Compound I],FIC values in vivo,"[1]; Compound I and AmB, suggesting additive or synergistic activity in vivo",approximately 0.50
same,adverse effects with combinations,"[1]; Compound I combined with either AmB or FCZ, at high, use or lower concentrations",no adverse effects
same,antagonism of efficacy,[1]; either AmB or FCZ combined with Compound I,no antagonism of efficacy
same,activity of combination therapy in vitro,A. fumigatus [2]; [8],enhanced activity
same,Fractional inhibitory indices (FIC),A. fumigatus [2]; [9],≤ 0.50
same,antagonism between Compound I and AmB,"A. fumigatus [2]; in vitro, clinical isolates",no antagonism
same,activity of combination therapy in vitro,C. albicans [3]; [8],enhanced activity
same,Fractional inhibitory indices (FIC),C. albicans [3]; [9],≤ 0.50
same,antagonism between Compound I and AmB,"C. albicans [3]; in vitro, clinical isolates",no antagonism
same,effect on activity of fluconazole (CFU numbers),"C. neoformans [4]; Compound I combined with fluconazole 0.25, 0.50 and 1.0 μg/ml",significantly enhanced the activity of fluconazole
same,activity of combination therapy in vitro,"C. neoformans [4]; Compound I with AmB and FCZ, sub-inhibitory concentrations, strains of C. neoformans",enhanced activity
same,colony forming units (CFUs),"C. neoformans [4]; amphotericin B 0.0075, 0.015 and 0.03 μg/ml combined with Compound I 4, 8 and 16 μg/ml",markedly reduced
same,Fractional inhibitory indices (FIC),C. neoformans [4]; [9],≤ 0.50
same,antagonism between Compound I and AmB,"C. neoformans [4]; in vitro, clinical isolates",no antagonism
same,efficacy of combination versus single agents,C. albicans [5],more efficacious than either agent administered alone
same,antagonism of efficacy,"C. neoformans [6]; FCZ in combination with Compound I, cryptococcosis in mice",no antagonism of efficacy
same,effects on efficacy,C. neoformans [6]; combinations of Compound I and FCZ at certain concentrations,Beneficial effects on efficacy
same,survival,A. fumigatus [7],Significant improvement in survival
